Drawing on patent publication US11396495B2, “Amine compound for inhibiting SSAO/VAP-1 and use thereof” (SUNSHINE LAKE PHARMA CO., LTD., priority 2017, dated 2022), this text covers IC50 for 27 compounds.

The target in assay [1] is Human recombinant SSAO/VAP-1 (Homo sapiens (Human), UniProt Q16853). In words: Determination of inhibitory activity of human recombinant SSAO/VAP-1 (Amplex Red, benzylamine). The class given is biochemical. The note with it: human recombinant SSAO/VAP-1, 30 min preincubation at room temperature; read-out: SSAO/VAP-1(Human recombinant protein) IC50/nM. As for the experimental part: 1. Determination of Inhibitory Activity of Human Recombinant SSAO/VAP-1
Test purpose: The following methods can be used to determine the inhibitory activity of the compounds described in the examples of the invention for human recombinant SSAO/VAP-1.
Human recombinant SSAO/VAP-1 (VAP-1, human) purchased from Sigma, Cat. No. SRP6241;
The test compound was dissolved in DMSO and diluted to 10 concentrations in 4-fold serial dilution. In 384 well plates, 25 μL of human recombinant SSAO/VAP-1 (1.6 μg/ml) was added to each well. 100 nL of test compounds with different concentrations were added to each well containing human recombinant SSAO/VAP-1 and incubated at room temperature for 30 min. After 30 min incubation, 25 μl of Amplex® red monoamine oxidase assay kit (containing a reaction mixture of 200 μm Amplex Red reagent, 1 U/ml HRP and 1 mm benzylamine hydrochloride) was added to the corresponding well, and incubated at room temperature and dark for 60 min. After 60 min, the relative fluorescence unit (RFU) was read by using PerkinElmer's Envision at 530-560 nm excitation and 590 nm emission. The curve was drawn by using the graph pad prism 5 software, and the IC50 value was calculated. The results were shown in table 1, wherein the compound listed in table 1 is the compound in the preparation examples with the same compound number: […]

Assay [2] deals with rat adipose tissue homogenate SSAO/VAP-1 (Rattus norvegicus (Rat), UniProt O08590). In words: Determination of inhibitory activity of rat adipose tissue homogenate SSAO/VAP-1. Format: biochemical, Sprague Dawley rats. To be noted: rat abdominal adipose tissue homogenate, pargyline pretreated, 37° C. As for the experimental part:
2. Determination of Inhibitory Activity of Rat Adipose Tissue Homogenate SSAO/VAP-1
Test purpose: The following methods can be used to determine the inhibitory activity of the compounds of the invention for rat adipose tissue homogenate SSAO/VAP-1.
The abdominal fat removed from Sprague Dawley rats was a tissue rich in SSAO/VAP-1. 5 mL Of HES buffer per gram of rat abdominal adipose tissue (20 mM Sodium N-piperazine-N-ethanesulfonate, 1 mm EDTA, 250 mM sucrose, 1×PMSF and 100 mM (3-glycerol phosphate disodium salt hydrate, pH 7.4) was added for homogenizing. The fat tissue was homogenized for 3 min by using Bertin precellys 24 multi-functional sample homogenizer of Bertin technologies, and the fat tissue homogenate was centrifuged for 10 min at 4° C. and 20000 g, and the middle transparent supernatant was taken. The supernatant was incubated with 0.5 mm Pargyline hydrochloride dissolved in HES buffer at 37° C. for 30 min. After 30 min incubation, 25 μl of fat tissue supernatant was added to the standard 96 well plate. The test compound was dissolved in DMSO and diluted to 6 concentrations. 25 μL Of the test compounds with different concentrations was added to each well containing the supernatant of fat tissue and incubated at 37° C. for 30 min. After incubation, 50 μL of the reaction mixture containing 80 μM benzylamine hydrochloride (containing 100 μM Amplex® red and 0.2 U/mL HRP, Amplex® Red Hydrogen peroxideperoxidase assay kit) was added to the corresponding wells and incubated at 37° C. for 30 min. After 30 min, the relative fluorescence unit (RFU) was read by using PHERAstar FSX enzyme marker of BMG LABTECH at 540 nm excitation and 580 nm emission. The curve was drawn by using the graph pad prism 5 software, and the IC50 value was calculated. The results were shown in table 2, wherein the compound listed in table 2 is the compound in the preparation examples with the same compound number: Table 2: inhibitory activity of the compound of examples of the invention for SSAO/VAP-1 of fat tissue homogenate

Counter-ions that a name gives are not always drawn.

Chain of Human recombinant SSAO/VAP-1 (Q16853 whole entry): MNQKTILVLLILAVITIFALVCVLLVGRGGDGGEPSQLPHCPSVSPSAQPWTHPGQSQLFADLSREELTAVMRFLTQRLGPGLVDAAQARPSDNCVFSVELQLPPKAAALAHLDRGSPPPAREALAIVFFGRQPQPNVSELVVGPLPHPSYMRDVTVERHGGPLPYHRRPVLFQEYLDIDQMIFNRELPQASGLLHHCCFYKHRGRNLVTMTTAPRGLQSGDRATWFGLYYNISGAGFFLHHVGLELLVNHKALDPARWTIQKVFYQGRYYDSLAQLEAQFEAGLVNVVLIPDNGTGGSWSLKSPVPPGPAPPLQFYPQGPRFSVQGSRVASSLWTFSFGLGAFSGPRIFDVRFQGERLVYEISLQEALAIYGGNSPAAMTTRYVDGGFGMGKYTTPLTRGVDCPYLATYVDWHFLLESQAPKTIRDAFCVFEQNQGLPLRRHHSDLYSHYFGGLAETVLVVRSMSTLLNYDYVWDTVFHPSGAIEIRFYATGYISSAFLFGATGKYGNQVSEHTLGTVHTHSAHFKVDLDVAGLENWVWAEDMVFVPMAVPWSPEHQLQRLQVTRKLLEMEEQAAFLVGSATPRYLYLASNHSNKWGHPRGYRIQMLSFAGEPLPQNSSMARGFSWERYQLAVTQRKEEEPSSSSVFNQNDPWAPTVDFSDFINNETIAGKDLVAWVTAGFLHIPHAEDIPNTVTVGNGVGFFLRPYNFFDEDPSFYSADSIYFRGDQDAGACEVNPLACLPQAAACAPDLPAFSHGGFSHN
Chain of rat adipose tissue homogenate SSAO/VAP-1 (O08590 whole entry): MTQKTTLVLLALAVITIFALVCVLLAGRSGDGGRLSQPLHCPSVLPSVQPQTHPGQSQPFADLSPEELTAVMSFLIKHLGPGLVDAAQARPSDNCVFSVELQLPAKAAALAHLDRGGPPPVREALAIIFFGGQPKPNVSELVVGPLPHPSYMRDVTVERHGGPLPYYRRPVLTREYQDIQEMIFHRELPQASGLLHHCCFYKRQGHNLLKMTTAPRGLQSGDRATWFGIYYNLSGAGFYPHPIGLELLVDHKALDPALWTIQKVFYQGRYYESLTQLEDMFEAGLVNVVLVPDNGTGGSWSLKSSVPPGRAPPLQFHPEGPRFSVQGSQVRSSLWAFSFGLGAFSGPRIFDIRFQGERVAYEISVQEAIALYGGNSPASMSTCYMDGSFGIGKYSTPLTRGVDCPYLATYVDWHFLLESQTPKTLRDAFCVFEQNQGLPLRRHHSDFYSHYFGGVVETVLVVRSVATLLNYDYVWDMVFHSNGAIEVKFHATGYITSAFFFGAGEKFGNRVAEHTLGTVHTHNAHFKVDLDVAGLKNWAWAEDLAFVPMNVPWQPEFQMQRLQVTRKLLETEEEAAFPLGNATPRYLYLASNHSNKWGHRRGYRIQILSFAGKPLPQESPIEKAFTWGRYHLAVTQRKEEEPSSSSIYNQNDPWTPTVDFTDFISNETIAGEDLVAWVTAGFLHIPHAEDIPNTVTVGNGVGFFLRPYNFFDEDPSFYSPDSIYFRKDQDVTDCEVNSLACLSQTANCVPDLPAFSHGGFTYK

Turning to `NC/C(=C\F)COc1ccc2c(c1)CCN(c1ccccc1F)C2=O` [Compound 34, 6-[(E)-2-(aminomethyl)-3-fluoro-allyloxy]-2-(2-fluorophenyl)-3,4-dihydroisoquinolin-1-one hydrochloride], in assay [1], the IC50 worked out at 1.16 nM.

With `COC(=O)CN1CCc2cc(OC/C(=C\F)CN)ccc2C1=O` [Compound 59, methyl 2-[6-[(Z)-2-(aminomethyl)-3-fluoro-allyloxy]-1-oxo-3,4-dihydroisoquinolin-2-yl]acetate hydrochloride], in assay [1], the IC50 was determined as 1.3 nM.

For `NC/C(=C\F)COc1ccc2c(c1)CCN(c1nccs1)C2=O` [Compound 40, 6-[(E)-2-(aminomethyl)-3-fluoro-allyloxy]-2-thiazol-2-yl-3,4-dihydroisoquinolin-1-one hydrochloride], in assay [1], the IC50 worked out at 1 nM.

For the compound `NC/C(=C/F)COc1ccc2c(c1)CCN(C1CCOCC1)C2=O` [Compound 17, 6-[(Z)-2-(aminomethyl)-3-fluoro-allyloxy]-2-(tetrahydropyran-4-yl)-3,4-dihydroisoquinolin-1-one hydrochloride], the IC50 in assay [1] was 0.58 nM; in assay [2], 5.03 nM.

Take `NC/C(=C\F)COc1ccc2c(c1)CCN(c1ncccn1)C2=O` [Compound 7, 6-[(E)-2-(aminomethyl)-3-fluoro-allyloxy]-2-(pyrimidin-2-yl)-3,4-dihydroisoquinolin-1-one hydrochloride]: the IC50 came to 0.09 nM in assay [1] and 8.98 nM in assay [2].

For the compound `NC/C(=C\F)COc1ccc2c(c1)CCN(c1ccccn1)C2=O` [Compound 28, 6-[(E)-2-(aminomethyl)-3-fluoro-allyloxy]-2-(2-pyridyl)-3,4-dihydroisoquinolin-1-one hydrochloride], the IC50 in assay [1] stood at 1.53 nM.

Regarding `N#Cc1ccc(N2CCc3cc(OC/C(=C\F)CN)ccc3C2=O)cc1` [Compound 39, 4-[6-[(Z)-2-(aminomethyl)-3-fluoro-allyloxy]-1-oxo-3,4-dihydroisoquinolin-2-yl]benzonitrile hydrochloride], the IC50 in assay [1] was 0.53 nM.

As for `NC/C(=C/F)COc1ccc2c(c1)CCN(CCOCc1ccccc1)C2=O` [Compound 21, 6-[(Z)-2-(aminomethyl)-3-fluoro-allyloxy]-2-(2-benzyloxyethyl)-3,4-dihydro isoquinolin-1-one hydrochloride], in assay [1], the IC50 came to 0.91 nM.

On to `COC(=O)CN1CCc2cc(OC/C(=C/F)CN)ccc2C1=O` [Compound 58, methyl 2-[6-[(E)-2-(aminomethyl)-3-fluoro-allyloxy]-1-oxo-3,4-dihydroisoquinolin-2-yl]acetate hydrochloride], for which the IC50 in assay [1] is 1.17 nM.

As for `CN1CCc2cc(OC/C(=C\F)CN)ccc2C1=O` [Compound 9, 6-[(Z)-2-(aminomethyl)-3-fluoro-allyloxy]-2-methyl-3,4-dihydroisoquinolin-1-one hydrochloride], the IC50 came to 0.61 nM in assay [1] and 8.05 nM in assay [2].

`NC/C(=C/F)COc1ccc2c(c1)CCNS2(=O)=O` [Compound 33, (E)-2-[(1,1-dioxo-3,4-dihydro-2H-benzo[e][1,2]thiazin-6-yl)oxymethyl]-3-fluoro-prop-2-enyl-1-amine hydrochloride]: the results for the IC50 in assay [1] and in assay [2] were 1.98 nM and 4.88 nM, respectively.

For `NC/C(=C\F)COc1ccc2c(c1)CCN(C1CCOCC1)C2=O` [Compound 16, 6-[(E)-2-(aminomethyl)-3-fluoro-allyloxy]-2-(tetrahydropyran-4-yl)-3,4-dihydroisoquinolin-1-one hydrochloride], the IC50 came out at 0.22 nM in assay [1] and 6.01 nM in assay [2].

`NC/C(=C/F)COc1ccc2c(c1)CCN(c1nccs1)C2=O` [Compound 41, 6-[(Z)-2-(aminomethyl)-3-fluoro-allyloxy]-2-thiazol-2-yl-3,4-dihydroisoquinolin-1-one hydrochloride]: in assay [1], the IC50 came to 0.63 nM.

For `NC/C(=C/F)COc1ccc2c(c1)CCN(Cc1ccon1)C2=O` [Compound 43, 6-[(Z)-2-(aminomethyl)-3-fluoro-allyloxy]-2-(isoxazol-3-yl-methyl)-3,4-dihydroisoquinolin-1-one hydrochloride], the IC50 in assay [1] was 0.71 nM.

For the compound `CCOC(=O)CN1CCc2cc(OC/C(=C\F)CN)ccc2C1=O` [Compound 13, ethyl 2-[6-[(Z)-2-(aminomethyl)-3-fluoro-allyloxy]-1-oxo-3,4-dihydroisoquinolin-2-yl]acetate hydrochloride], the IC50 in assay [1] was found to be 0.11 nM; in assay [2], 8.03 nM.

As to `NC/C(=C\F)COc1ccc2c(c1)CCN(Cc1ccon1)C2=O` [Compound 42, 6-[(E)-2-(aminomethyl)-3-fluoro-allyloxy]-2-(isoxazol-3-yl-methyl)-3,4-dihydroisoquinolin-1-one hydrochloride], in assay [1], the IC50 amounted to 1.13 nM.

Turning to `NC/C(=C/F)COc1ccc2c(c1)CCN(CC1CCOCC1)C2=O` [Compound 11, 6-[(Z)-2-(aminomethyl)-3-fluoro-allyloxy]-2-(tetrahydropyranyl-4-methylene)-3,4-dihydroisoquinolin-1-one hydrochloride], the IC50 in assay [1] was found to be 0.82 nM; in assay [2], 11.7 nM.

With `COC(=O)CCN1CCc2cc(OC/C(=C\F)CN)ccc2C1=O` [Compound 57, methyl 3-[6-[(Z)-2-(aminomethyl)-3-fluoro-allyloxy]-1-oxo-3,4-dihydroisoquinolin-2-yl]propionate hydrochloride], in assay [1], the IC50 came to 1.27 nM.

For `NC/C(=C/F)COc1ccc2c(c1)CCN(c1ccccc1)C2` [Compound 53, (Z)-3-fluoro-2-[(2-phenyl-3,4-dihydro-1H-isoquinolin-6-yl)oxymethyl]prop-2-enyl-1-amine hydrochloride], the IC50 in assay [1] is 1.04 nM.

`NC/C(=C\F)COc1ccc2c(c1)CCNS2(=O)=O` [Compound 32, (E)-2-[(1,1-dioxo-3,4-dihydro-2H-benzo[e][1,2]thiazin-6-yl)oxymethyl]-3-fluoro-prop-2-enyl-1-amine hydrochloride]: the IC50 in assay [2] was determined as 6.22 nM.

Consider `COc1ncc(N2CCc3cc(OC/C(=C\F)CN)ccc3C2=O)cn1` [Compound 55, 6-[(Z)-2-[(aminomethyl)-3-fluoro-allyloxy]-2-(2-methoxypyrimidin-5-yl)-3,4-dihydroisoquinolin-1-one hydrochloride], for which the IC50 in assay [1] amounted to 0.82 nM.

For the compound `NC/C(=C/F)COc1ccc2c(c1)CCN(c1ccccc1F)C2=O` [Compound 35, 6-[(Z)-2-(aminomethyl)-3-fluoro-allyloxy]-2-(2-fluorophenyl)-3,4-dihydroisoquinolin-1-one hydrochloride], the IC50 in assay [1] was determined as 0.71 nM.

Take `COC(=O)CCN1CCc2cc(OC/C(=C/F)CN)ccc2C1=O` [Compound 56, methyl 3-[6-[(E)-2-(aminomethyl)-3-fluoro-allyloxy]-1-oxo-3,4-dihydroisoquinolin-2-yl]propionate hydrochloride]: the IC50 in assay [1] amounted to 1.91 nM.

As to `NC/C(=C\F)COc1ccc2c(c1)NC(=O)CC2` [Compound 1, 7-[(E)-2-(aminomethyl)-3-fluoro-allyloxy]-3,4-dihydro-1H-quinolin-2-one hydrochloride], in assay [2], the IC50 amounted to 10.1 nM.

As to `N#Cc1ccc(N2CCc3cc(OC/C(=C/F)CN)ccc3C2=O)cc1` [Compound 38, 4-[6-[(E)-2-(aminomethyl)-3-fluoro-allyloxy]-1-oxo-3,4-dihydroisoquinolin-2-yl]benzonitrile hydrochloride], the IC50 in assay [1] stood at 0.68 nM.

On to `NC/C(=C\F)COc1ccc2c(c1)CCN(CC1CCOCC1)C2=O` [Compound 10, 6-[(E)-2-(aminomethyl)-3-fluoro-allyloxy]-2-(tetrahydropyranyl-4-methylene)-3,4-dihydroisoquinolin-1-one hydrochloride], for which, in assay [2], the IC50 is 9.54 nM.

In the case of `NC/C(=C/F)COc1ccc2c(c1)CCN(c1ccccc1)C2=O` [Compound 6, 6-[(Z)-2-(aminomethyl)-3-fluoro-allyloxy]-2-phenyl-3,4-dihydroisoquinolin-1-one hydrochloride], the IC50 in assay [1] was 0.04 nM.
